Patent publication US20250135021A1, “USE OF ANTIBODY-DRUG CONJUGATE, AND COMBINED DRUG AND USE THEREOF” (SHANGHAI MIRACOGEN INC., priority 2021, published 2025)

Key:
[1] = system: AZD9291-resistant human lung adenocarcinoma PDX model LUN #2005-143; assay: Efficacy in AZD9291-resistant human lung cancer PDX model LUN #2005-143; format: in vivo, immunodeficient mice; conditions: Day 29
Text: (§1) The human-derived tumor tissue xenograft model (PDX model) is a tumor model established in immunodeficient mice using human tumor tissue, which retains the heterogeneity, molecular diversity and histological characteristics of the primary tumor to the greatest extent. It has a high predictive value for the clinical therapeutic effect of drugs and has been increasingly used in cancer research (Hidalgo-2014) in recent years. […] In all experiments, the commercially available third-generation EGFR inhibitor AZD9291 was used as a reference drug to compare tumor inhibition activities.
LUN #2005-143 is an AZD9291-resistant human lung adenocarcinoma (a type of NSCLC) PDX model. This experiment was performed in total of 4 groups, including a Vehicle group (ADC-3 vehicle), an AZD9291 administration group (5 mg/kg), and ADC-3 administration groups (1 mg/kg and 3 mg/kg). During the entire experiment, ADC-3 was administered four times in total, via tail vein injection on Day 0, Day 4, Day 8, and Day 12, and AZD9291 was administered 29 times in total, once a day by intragastric administration. […] In terms of body weight, all animals in the tested drug groups had good tolerance. […] In this experiment, tumor-bearing mice had good tolerance to the tested drugs.

[2] = system: AZD9291-resistant human adenosquamous carcinoma of the lung PDX model LUN #2210-4a; assay: Efficacy in AZD9291-resistant human lung cancer PDX model LUN #2210-4a; format: in vivo, immunodeficient mice; conditions: Day 28
Text: as §1
LUN #2210-4a is an AZD9291-resistant human adenosquamous carcinoma of the lung PDX model. […] During the entire experiment, ADC-3 was administered four times in total, via tail vein injection on Day 0, Day 4, Day 8, and Day 12, and AZD9291 was administered 28 times in total, once a day by intragastric administration. […] Tumor-bearing mice had good tolerance to the tested drugs.

[3] = system: AZD9291-resistant human adenosquamous carcinoma of the lung PDX model LUN #2210-106; assay: Efficacy in AZD9291-resistant human lung cancer PDX model LUN #2210-106; format: in vivo, immunodeficient mice; conditions: Day 30
Text: as §1
LUN #2210-106 is an AZD9291-resistant human adenosquamous carcinoma of the lung PDX model. This experiment was performed in total of 4 groups, including a Vehicle group (ADC-3 vehicle), an AZD9291 administration group (5 mg/kg), and ADC-3 administration groups (1 mg/kg and 3 mg/kg). During the entire experiment, ADC-3 was administered four times in total, via tail vein injection on Day 0, Day 4, Day 8, and Day 12, and AZD9291 was administered 30 times in total, once a day by intragastric administration. […] Tumor-bearing mice had good tolerance to the tested drugs.

[4] = system: AZD9291-resistant human large cell lung carcinoma PDX model LUN #2355-128; assay: Efficacy in AZD9291-resistant human lung cancer PDX model LUN #2355-128; format: in vivo, immunodeficient mice; conditions: Day 16
Experimental: The human-derived tumor tissue xenograft model (PDX model) is a tumor model established in immunodeficient mice using human tumor tissue, which retains the heterogeneity, molecular diversity and histological characteristics of the primary tumor to the greatest extent. […] In all experiments, the commercially available third-generation EGFR inhibitor AZD9291 was used as a reference drug to compare tumor inhibition activities.
This experiment was performed in total of 4 groups, including a Vehicle group (ADC-3 vehicle), an AZD9291 administration group (5 mg/kg), and ADC-3 administration groups (1 mg/kg and 3 mg/kg). During the entire experiment, ADC-3 was administered four times in total, via tail vein injection on Day 0, Day 4, Day 8, and Day 12, and AZD9291 was administered 27 times in total, once a day by intragastric administration. The experiment period was 27 days.

[5] = system: AZD9291-resistant human adenosquamous carcinoma of the lung PDX model LUN #2441-118; assay: Efficacy in AZD9291-resistant human lung cancer PDX model LUN #2441-118; format: in vivo, immunodeficient mice; conditions: Day 25
Text: as §1
LUN #2441-118 is an AZD9291-resistant human adenosquamous carcinoma of the lung PDX model. […] During the entire experiment, ADC-3 was administered four times in total, via tail vein injection on Day 0, Day 4, Day 8, and Day 12, and AZD9291 was administered 28 times in total, once a day by intragastric administration. The experiment period was 28 days. […] Tumor-bearing mice had good tolerance to the tested drugs.

[6] = system: human lung cancer PDX model LUN #2210-106; assay: Efficacy of MYK-3, AK103 and their combination in human lung cancer PDX model LUN #2210-106 in Hu-HSC-NPG mice; format: in vivo; conditions: Day 20
Experimental: LUN #2210-106 is an AZD9291-resistant human adenosquamous carcinoma of the lung PDX model. This experiment was performed in total of 4 groups, including a Vehicle group (ADC-3 vehicle), an ADC-3 administration group (1 mg/kg), an AK103 administration group (5 mg/kg), and an ADC-3 (1 mg/kg)+AK103 (5 mg/kg) administration group. During the entire experiment, ADC-3 was administered three times in total for the ADC-3 single-drug administration group, via tail vein injection on Day 0, Day 4, and Day 8; and AK103 was administered every three days via tail vein injection for the AK103 single-drug administration group, 8 times in total. For the ADC-3+AK103 administration group, ADC-3 was administered three times, and AK103 was administered ten times in total, and their administration modes were the same as those for the single-drug administration groups. The experiment period was 34 days. […] During the period from Day 20 to Day 34, the mean tumor volume of animals in the ADC-3 (1 mg/kg) administration group gradually resumed growth (from 184 mm^3 to 893 mm^3); the mean tumor volume of animals in the ADC-3 (1 mg/kg)+AK103 (5 mg/kg) administration group grew slowly (from 38 mm^3 to 126 mm^3), and on Day 34, complete tumor regression was still observed in 1 out of 6 animals.

[7] = 5 mg/kg intragastric once a day
[8] = AZD9291 dose 3 mg/kg in Table 4

Row | Compound | Relative tumor proliferation rate T/C (%) [1, 7] [%] | Tumor growth inhibition rate TGI % [1, 7] [%] | Tumor inhibition activity ([1]; 5 mg/kg) | Relative tumor proliferation rate T/C (%) [2, 7] [%] | Tumor growth inhibition rate TGI % [2, 7] [%] | Tumor growth inhibition rate TGI % [2, 8] [%] | Tumor inhibition activity [2, 8] | Relative tumor proliferation rate T/C (%) [3, 7] [%] | Tumor growth inhibition rate TGI % [3, 7] [%] | Tumor inhibition activity ([3]; 5 mg/kg) | Relative tumor proliferation rate T/C (%) [4, 7] [%] | Tumor growth inhibition rate TGI % [4, 7] [%] | Tumor inhibition activity ([4]; 5 mg/kg) | Relative tumor proliferation rate T/C (%) [5, 7] [%] | Tumor growth inhibition rate TGI % [5, 7] [%] | Relative tumor proliferation rate T/C (%) [5, 8] [%] | Tumor inhibition activity [5, 8] | Relative tumor proliferation rate T/C (%) ([6]; 5 mg/kg i.v. every three days) | Tumor growth inhibition rate TGI % ([6]; 5 mg/kg i.v. every three days) [%] | Tumor inhibition activity ([6]; 5 mg/kg)
1 | C=CC(=O)Nc1cc(Nc2nccc(-c3cn(C)c4ccccc34)n2)c(OC)cc1N(C)CCN(C)C [AZD9291, osimertinib, reference compound] | 36.90 | 63.10 | ++ (T/C (%) >20% and ≤40%) | 68.99 | 31.01 | 31.01 | + (T/C (%) >40%) | 65.31 | 34.69 | + (T/C (%) >40%) | 33.61 | 66.39 | ++ (T/C (%) >20% and ≤40%) | 29.35 | 70.65 | 29.35 | ++ (T/C (%) >20% and ≤40%) | – | – | –
2 | AK103: anti-PD-1 monoclonal antibody drug and immune checkpoint inhibitor | – | – | – | – | – | – | – | – | – | – | – | – | – | – | – | – | – | 93.61 | 6.39 | + (T/C (%) >40%)
